Laboratory results taken from ChEMBL document CHEMBL3994562 (Medchemcomm, 2016).
Converted amounts (≈) assume the structure as drawn.

How the values were obtained:
[1] = Aqueous solubility of the compound in water after 48 hrs by UV spectrophotometer; type: physicochemical
HepG2 [2] = test: Antiproliferative activity in human HepG2 cells after 72 hrs by MTT assay; type: functional, cell-based; details: HepG2, 72 h
HCT-116 [3] = test: Antiproliferative activity in human HCT116 cells after 72 hrs by MTT assay; type: functional, cell-based; details: HCT-116, 72 h
A549 [4] = test: Antiproliferative activity in human A549 cells after 72 hrs by MTT assay; type: functional, cell-based; details: A549, 72 h
MCF7 [5] = test: Antiproliferative activity in human MCF7 cells after 72 hrs by MTT assay; type: functional, cell-based; details: MCF7, 72 h
Bel-7402 [6] = test: Antiproliferative activity in human Bel7402 cells after 72 hrs by MTT assay; type: functional, cell-based; details: Bel-7402, 72 h
Bel-7402 [7] = test: Antiproliferative activity in 5-FU resistant human Bel7402 cells after 72 hrs by MTT assay; type: functional, cell-based; details: Bel-7402, 72 h
HCT-116 [8] = test: Potency index, ratio of 5-FU IC50 to compound IC50 for human HCT116 cells; type: functional
HepG2 [9] = test: Potency index, ratio of 5-FU IC50 to compound IC50 for human HepG2 cells; type: functional
SCC-4 = test: Antiproliferative activity against human SCC4 cells; type: functional, cell-based
SGC-7901 = test: Antiproliferative activity against human SGC7901 cells after 24 to 72 hrs by MTT assay; type: functional, cell-based
MCF7 [10] = test: Antiproliferative activity against human MCF7 cells; type: functional, cell-based
A549 [11] = test: Antiproliferative activity against human A549 cells
HL-60 = test: Antiproliferative activity against human HL60 cells; type: functional, cell-based
[12] = Antiproliferative activity against human nasopharyngeal carcinoma cells; type: functional, cell-based; details: Nasopharyngeal carcinoma cell
HepG2 [13] = test: Antiproliferative activity against human HepG2 cells
Bel-7402 [14] = test: Antiproliferative activity against human Bel7402 cells after 24 to 72 hrs by MTT assay; type: functional, cell-based
HCT-116 [15] = test: Induction of apoptosis in human HCT116 cells after 48 hrs by annexin V-FITC/propidium iodide staining-based flow cytometric method; type: functional, cell-based
HCT-116 [16] = test: Induction of apoptosis in human HCT116 cells at 4 uM after 48 hrs by annexin V-FITC/propidium iodide staining-based flow cytometric method; type: functional
HCT-116 [17] = test: Cell cycle arrest in human HCT116 cells assessed as accumulation at G2/M phase after 24 hrs by propidium iodide staining-based flow cytometric analysis; type: functional
HCT-116 [18] = test: Cell cycle arrest in human HCT116 cells assessed as decrease in cell population at G0/G1 phase after 24 hrs by propidium iodide staining-based flow cytometric analysis; type: functional
HCT-116 [19] = test: Induction of apoptosis in human HCT116 cells assessed as downregulation of CDK1 protein level after 24 hrs by Western blot method; type: functional, cell-based
HCT-116 [20] = test: Induction of apoptosis in human HCT116 cells assessed as downregulation of cyclin B protein level after 24 hrs by Western blot method; type: functional, cell-based

Structure (SMILES) | solubility at 48 h [1] | IC50 (HepG2 [2]) | IC50 (HCT-116 [3]) | IC50 (A549 [4]) | IC50 (MCF7 [5]) | further results
CCN(CC)CCCCCOC(=O)c1cc(O)c2c(c1)C(=O)c1cccc(O)c1C2=O.Cl | 12.4 mg/mL | 12.2 µM | 9.05 µM | 27.3 µM | 15.2 µM | –
Cl.O=C(OCCCCN1CCOCC1)c1cc(O)c2c(c1)C(=O)c1cccc(O)c1C2=O | 11.7 mg/mL | 6.23 µM | 3.29 µM | 21.4 µM | 24.4 µM | –
O=c1[nH]cc(F)c(=O)[nH]1 [FLUOROURACIL] | – | 5.82 µM | 4.3 µM | 10.3 µM | 4.32 µM | IC50 (Bel-7402 [6]): 7.57 µM; IC50 (Bel-7402 [7]): 214 µM
Cl.O=C(OCCCCCN1CCCCC1)c1cc(O)c2c(c1)C(=O)c1cccc(O)c1C2=O | 10.3 mg/mL | 6.12 µM | 5.28 µM | 8.69 µM | 1.95 µM | –
Cl.O=C(OCCCCCCN1CCCCC1)c1cc(O)c2c(c1)C(=O)c1cccc(O)c1C2=O | 11 mg/mL | 0.52 µM | 0.48 µM | 3.01 µM | 5.92 µM | IC50 (Bel-7402 [6]): 3.95 µM; IC50 (Bel-7402 [7]): 5.95 µM; Ratio IC50 (HCT-116 [8]): 5 - 18; Ratio IC50 (HepG2 [9]): 5 - 18
O=C(O)c1cc(O)c2c(c1)C(=O)c1cccc(O)c1C2=O [RHEIN] | 0.0456 mg/mL (≈ 160 µM) | 101 µM | 116 µM | 120 µM | 106 µM | IC50 (SCC-4): 58 µM; IC50 (SGC-7901): 150 µM; IC50 (MCF7 [10]): 130 µM; IC50 (Bel-7402 [6]): 120 µM; IC50 (Bel-7402 [7]): 136 µM; IC50 (A549 [11]): 80 µM; IC50 (HL-60): 100 µM; IC50 [12]: 140 µM; IC50 (HepG2 [13]): 710 µM; IC50 (Bel-7402 [14]): 110 µM
Cl.Cl.O=C(OCCCN1CCN(CCO)CC1)c1cc(O)c2c(c1)C(=O)c1cccc(O)c1C2=O | 12.2 mg/mL | 4.02 µM | 0.71 µM | 7.11 µM | 8.86 µM | –
CCN(CC)CCCCCCOC(=O)c1cc(O)c2c(c1)C(=O)c1cccc(O)c1C2=O.Cl | 13.8 mg/mL | 0.33 µM | 0.83 µM | 4.39 µM | 7.56 µM | IC50 (Bel-7402 [6]): 6.49 µM; IC50 (Bel-7402 [7]): 7.31 µM; Ratio IC50 (HCT-116 [8]): 5 - 18; Ratio IC50 (HepG2 [9]): 5 - 18
CN1CCN(CCCOC(=O)c2cc(O)c3c(c2)C(=O)c2cccc(O)c2C3=O)CC1.Cl.Cl | 13.3 mg/mL | 4.93 µM | 3.75 µM | 8.41 µM | 11.4 µM | –
CCN1CCN(CCCCCCOC(=O)c2cc(O)c3c(c2)C(=O)c2cccc(O)c2C3=O)CC1.Cl.Cl | 10.2 mg/mL | 1.47 µM | 1.93 µM | 6.42 µM | 3.25 µM | –
CN1CCN(CCCCCOC(=O)c2cc(O)c3c(c2)C(=O)c2cccc(O)c2C3=O)CC1.Cl.Cl | 13.7 mg/mL | 2.95 µM | 1.5 µM | 6.32 µM | 1.13 µM | –
Cl.Cl.O=C(OCCCCCCN1CCN(CCO)CC1)c1cc(O)c2c(c1)C(=O)c1cccc(O)c1C2=O | 15.1 mg/mL | 0.85 µM | 0.31 µM | 5.28 µM | 7.63 µM | IC50 (Bel-7402 [6]): 2.36 µM; IC50 (Bel-7402 [7]): 4.48 µM; Ratio IC50 (HCT-116 [8]): 5 - 18; Ratio IC50 (HepG2 [9]): 5 - 18; Activity (HCT-116 [15]): Dose-dependent effect; Activity (HCT-116 [16]): 56.08%; Activity (HCT-116 [17]): Dose-dependent effect; Activity (HCT-116 [18]): Dose-dependent effect; Activity (HCT-116 [19]): Dose-dependent effect; Activity (HCT-116 [20]): Dose-dependent effect
CCN1CCN(CCCOC(=O)c2cc(O)c3c(c2)C(=O)c2cccc(O)c2C3=O)CC1.Cl.Cl | 10.1 mg/mL | 1.36 µM | 3.97 µM | 7.62 µM | 3.59 µM | –
CN1CCN(CCCCOC(=O)c2cc(O)c3c(c2)C(=O)c2cccc(O)c2C3=O)CC1.Cl.Cl | 14.8 mg/mL | 3.32 µM | 2.93 µM | 2.9 µM | 6.63 µM | –
CCN(CC)CCCOC(=O)c1cc(O)c2c(c1)C(=O)c1cccc(O)c1C2=O.Cl | 13.6 mg/mL | 2.94 µM | 0.65 µM | 6.23 µM | 8.28 µM | –
Cl.O=C(OCCCCCCN1CCOCC1)c1cc(O)c2c(c1)C(=O)c1cccc(O)c1C2=O | 12.8 mg/mL | 0.79 µM | 3.26 µM | 25.4 µM | 27.5 µM | –
Cl.O=C(OCCCCCN1CCOCC1)c1cc(O)c2c(c1)C(=O)c1cccc(O)c1C2=O | 12.3 mg/mL | 6.03 µM | 8.73 µM | 10.8 µM | 9.85 µM | –
Cl.O=C(OCCCN1CCCCC1)c1cc(O)c2c(c1)C(=O)c1cccc(O)c1C2=O | 11.3 mg/mL | 3.44 µM | 0.77 µM | 5.41 µM | 7.74 µM | –
CCN1CCN(CCCCCOC(=O)c2cc(O)c3c(c2)C(=O)c2cccc(O)c2C3=O)CC1.Cl.Cl | 10 mg/mL | 2.86 µM | 2.39 µM | 6.78 µM | 0.42 µM | –
Cl.O=C(OCCCCN1CCCCC1)c1cc(O)c2c(c1)C(=O)c1cccc(O)c1C2=O | 10.7 mg/mL | 0.89 µM | 2.03 µM | 26.4 µM | 28.9 µM | –
Cl.O=C(OCCCN1CCOCC1)c1cc(O)c2c(c1)C(=O)c1cccc(O)c1C2=O | 12.1 mg/mL | 1.81 µM | 4.92 µM | 24.9 µM | 27.3 µM | –
CCN(CC)CCCCOC(=O)c1cc(O)c2c(c1)C(=O)c1cccc(O)c1C2=O.Cl | 13 mg/mL | 1.34 µM | 1.81 µM | 3.86 µM | 5.36 µM | –
Cl.Cl.O=C(OCCCCCN1CCN(CCO)CC1)c1cc(O)c2c(c1)C(=O)c1cccc(O)c1C2=O | 12.2 mg/mL | 2.51 µM | 0.55 µM | 5.21 µM | 0.95 µM | –
CCN1CCN(CCCCOC(=O)c2cc(O)c3c(c2)C(=O)c2cccc(O)c2C3=O)CC1.Cl.Cl | 10.5 mg/mL | 2.51 µM | 1.88 µM | 8.56 µM | 5.23 µM | –
CN1CCN(CCCCCCOC(=O)c2cc(O)c3c(c2)C(=O)c2cccc(O)c2C3=O)CC1.Cl.Cl | 12.9 mg/mL | 0.42 µM | 0.76 µM | 3.39 µM | 5.05 µM | –
Cl.Cl.O=C(OCCCCN1CCN(CCO)CC1)c1cc(O)c2c(c1)C(=O)c1cccc(O)c1C2=O | 12 mg/mL | 3.65 µM | 0.85 µM | 2.5 µM | 4 µM | –
